# From BindingDB's records for doi:10.1021/jm00169a007 (University of Arizona, 1990)
# Positions of bridges follow the written chain, without caps; N, C: chain ends. Residues, ends and D or L forms follow the SMILES beside them.
# Assay: Binding affinity against Opioid receptor delta 1 in guinea pig brain homogenate using [3H]- DPDPE as radioligand
row,SMILES,IC50 [nM]
1,CC[C@H](C)[C@H](NC(=O)[C@H](CCCNC(=N)N)NC(=O)[C@H](CCCNC(=N)N)NC(=O)[C@H](CC(C)C)NC(=O)[C@H](Cc1ccccc1)NC(=O)CNC(=O)CNC(=O)[C@@H](N)Cc1ccc(O)cc1)C(=O)N[C@@H](CCCNC(=N)N)C(=O)N1CCC[C@H]1C(=O)N[C@@H](CCCCN)C(=O)N[C@@H](CC(C)C)C(=O)N[C@@H](CCCCN)C(N)=O,4.1
2,C[C@H]1NC(=O)[C@H](CCCNC(=N)N)NC(=O)[C@H](CCCNC(=N)N)NC(=O)[C@@H](NC(=O)[C@H](Cc2ccccc2)NC(=O)CNC(=O)CNC(=O)[C@@H](N)Cc2ccc(O)cc2)CSSC[C@@H](C(N)=O)NC(=O)[C@@H]2CCCN2C(=O)[C@H](CCCNC(=N)N)NC1=O,19
3,CC(C)C[C@H](NC(=O)[C@H](Cc1ccccc1)NC(=O)CNC(=O)CNC(=O)[C@@H](N)Cc1ccc(O)cc1)C(=O)N[C@@H](CCCNC(=N)N)C(=O)N[C@@H](CCCNC(=N)N)C(=O)N[C@@H]1CSSC[C@H](C(N)=O)NC(=O)[C@H](CC(C)C)NC(=O)[C@H](CCCCN)NC(=O)[C@@H]2CCCN2C(=O)[C@H](CCCNC(=N)N)NC1=O,14
4,CC(C)C[C@@H]1NC(=O)[C@H](CCCCN)NC(=O)[C@@H]2CCCN2C(=O)[C@H](CCCNC(=N)N)NC(=O)[C@@H](NC(=O)[C@H](CCCNC(=N)N)NC(=O)[C@H](CCCNC(=N)N)NC(=O)[C@H](CC(C)C)NC(=O)[C@H](Cc2ccccc2)NC(=O)CNC(=O)CNC(=O)[C@@H](N)Cc2ccc(O)cc2)CSSC[C@@H](C(N)=O)NC1=O,4
5,CC[C@H](C)[C@H](NC(=O)[C@H](CCCNC(=N)N)NC(=O)[C@H](CCCNC(=N)N)NC(=O)[C@H](CC(C)C)NC(=O)[C@H](Cc1ccccc1)NC(=O)CNC(=O)CNC(=O)[C@@H](N)Cc1ccc(O)cc1)C(=O)N[C@@H](CCCNC(=N)N)C(=O)N1CCC[C@H]1C(=O)N[C@@H](CCCCN)C(N)=O,7
6,CC(C)C[C@@H]1NC(=O)[C@H](CCCCN)NC(=O)[C@@H]2CCCN2C(=O)[C@H](CCCNC(=N)N)NC(=O)[C@H](NC(=O)[C@H](CCCNC(=N)N)NC(=O)[C@H](CCCNC(=N)N)NC(=O)[C@H](CC(C)C)NC(=O)[C@H](Cc2ccccc2)NC(=O)CNC(=O)CNC(=O)[C@@H](N)Cc2ccc(O)cc2)CSSC[C@@H](C(N)=O)NC1=O,104
7,CC[C@H](C)[C@@H]1NC(=O)[C@H](CCCNC(=N)N)NC(=O)[C@H](CCCNC(=N)N)NC(=O)[C@@H](NC(=O)[C@H](Cc2ccccc2)NC(=O)CNC(=O)CNC(=O)[C@@H](N)Cc2ccc(O)cc2)CSSC[C@@H](C(N)=O)NC(=O)[C@@H]2CCCN2C(=O)[C@H](CCCNC(=N)N)NC1=O (H-YGGFCRRIRPC-NH2; disulfide 5-11),1.6
